# Results as given in paper PMC12040169 (PLOS Biology, 2025).
# Key:
# [1] = test system: T1, CTL2-GFP (C. trachomatis L2/434/Bu, GFP-expressing); test: microbe, parasite or virus in culture; set-up: species or system HeLa; C. trachomatis growth in HeLa, dose-response, mean of bulk GFP fluorescence and imaged total inclusion area; details: Chlamydia trachomatis, 28.5 h; mean of GFP and inclusion area
# T1 construct: L2/434/Bu, GFP-expressing
# Outline: (§1)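 After bulk GFP and resorufin reads, fixed cells were Hoechst-stained and imaged to count chlamydial inclusions and host nuclei. Total inclusion area and number tracked bacterial growth, and nuclei number tracked host viability. MICs were derived, and 36,785 drug-like molecules were screened this way.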
# in vitro = test: in vitro; set-up: Viability of infected HeLa host cells, resazurin conversion, bulk resorufin fluorescence relative to DMSO; details: human, hela cells; bulk resorufin, mean of 3
# [2] = test system: T1, CTL2-GFP (C. trachomatis L2/434/Bu, GFP-expressing); test: microbe, parasite or virus in culture; set-up: C. trachomatis growth in HeLa, dose-response, mean of bulk GFP fluorescence and imaged total inclusion area; details: Chlamydia trachomatis, HeLa, 28.5 h; mean of GFP and inclusion area
# Outline: as §1
# L. reuteri = test system: T2, L. reuteri; test: microbe, parasite or virus in culture; set-up: Microbial growth in liquid dilution assay, OD600 relative to DMSO control; details: Limosilactobacillus reuteri; estimated IC50; read-out: L. reuteri, IC50 (µM) estimate
# T2 construct: DSM 20016
# Excerpt: (§2) Compound effects on commensal microbes in dilution assay As our objective was to discover compounds that inhibit Chlamydia selectively but spare commensal bacteria, we further tested 15 of our top compounds (c1e–c10e and c1v–c5v) against five bacterial species, Escherichia coli, Lactobacillus reuteri, Enterococcus faecalis, Bacteroides thetaiotaomicron, and Bifidobacterium adolescentis, representing the four dominating phyla of the human gut microbiota. […] Exceptions were c3e and c5e, which at 30 µM were inhibitory to some species. […] Of note, c1e–c3e had little or no effect on the growth of an even larger set of species of gut bacteria, also including Blautia coccoides, Prevotella copri, Prevotella histicola, Bacteroides fragilis, and Dubosiella newyorkensis, when tested in radial diffusion assays, in which the bacteria were exposed to compounds for 24–48 h before measurements of growth inhibition zones (S10B Fig and S5G Data).
# B. thetaiotaomicron = test system: T3, B. thetaiotaomicron; test: microbe, parasite or virus in culture; set-up: Microbial growth in liquid dilution assay, OD600 relative to DMSO control; details: Bacteroides thetaiotaomicron; estimated IC50; read-out: B. thetaiotaomicron, IC50 (µM) estimate
# T3 construct: DSM 2079
# Excerpt: as §2
# E. coli = test system: T4, E. coli; test: microbe, parasite or virus in culture; set-up: Microbial growth in liquid dilution assay, OD600 relative to DMSO control; details: Escherichia coli; estimated IC50; read-out: E. coli, IC50 (µM) estimate
# T4 construct: DSM 301
# Excerpt: as §2
# B. adolescentis = test system: T5, B. adolescentis; test: microbe, parasite or virus in culture; set-up: Microbial growth in liquid dilution assay, OD600 relative to DMSO control; details: Bifidobacterium adolescentis; estimated IC50; read-out: B. adolescentis, IC50 (µM) estimate
# T5 construct: DSM 20083
# Excerpt: as §2
# E. faecalis = test system: T6, E. faecalis; test: microbe, parasite or virus in culture; set-up: Microbial growth in liquid dilution assay, OD600 relative to DMSO control; details: Enterococcus faecalis; estimated IC50; read-out: E. faecalis, IC50 (µM) estimate
# T6 construct: DSM 20478
# Excerpt: as §2
# [3] = test system: T1, CTL2-GFP (C. trachomatis L2/434/Bu, GFP-expressing); test: microbe, parasite or virus in culture; set-up: Intracellular C. trachomatis growth in HeLa cells, bulk GFP fluorescence relative to DMSO; details: Chlamydia trachomatis, HeLa, 28.5 h; bulk GFP
# Experimental: (§3) MICs were calculated as described above.
# [4] = test system: T1, CTL2-GFP (C. trachomatis L2/434/Bu, GFP-expressing); test: microbe, parasite or virus in culture; set-up: species or system HeLa; Intracellular C. trachomatis growth in HeLa cells, bulk GFP fluorescence relative to DMSO; details: Chlamydia trachomatis, 28.5 h; bulk GFP
# Experimental: as §3
Compound,MIC [1],"viability at 28.5 h, 0.000416667 µM (in vitro)","viability at 28.5 h, 0.00125 µM (in vitro)","viability at 28.5 h, 0.00375 µM (in vitro)","viability at 28.5 h, 0.0123333 µM (in vitro)","viability at 28.5 h, 0.037 µM (in vitro)","viability at 28.5 h, 0.111 µM (in vitro)","viability at 28.5 h, 0.333 µM (in vitro)","viability at 28.5 h, 1 µM (in vitro)","viability at 28.5 h, 3 µM (in vitro)","viability at 28.5 h, 10 µM (in vitro)","viability at 28.5 h, 30 µM (in vitro)",IC50 [2],IC50 (L. reuteri),IC50 (B. thetaiotaomicron),IC50 (E. coli),IC50 (B. adolescentis),IC50 (E. faecalis),IC50 [3],MIC [4]
O=C(N/N=C/c1ccc(Sc2cccc3cccnc23)o1)c1cccc(F)c1 [c10e],5.57 µM,84.5%,93.8%,84.5%,91.6%,82.9%,92.9%,88%,94.1%,89.3%,89.9%,81.1%,0.828 µM,> 30 µM,> 30 µM,> 30 µM,> 30 µM,> 30 µM,,
COc1c(Br)cc2c(cc(C)n2-c2ccccc2)c1OCC(O)CNC(C)C (stereo not shown) [c5e],0.767 µM,87.7%,89.3%,86.3%,90.9%,88.9%,91.6%,87.6%,92.4%,89.5%,97%,0%,0.375 µM,> 30 µM,> 30 µM,> 30 µM,10.3 µM,> 30 µM,,
CC(=O)N1CCc2sccc2C1c1ccccc1NCc1ccoc1 (stereo not shown) [c28e],5.24 µM,92.9%,92.5%,86%,93.2%,90.6%,89.2%,86.1%,90.6%,82.6%,87.9%,83%,2.6 µM,,,,,,,
Cc1ccc(C(=O)/C=C/Nc2ccc(S(=O)(=O)Nc3onc(C)c3C)cc2)cc1 [c4v],,,,,,,,,,,,,,> 30 µM,> 30 µM,> 30 µM,> 30 µM,> 30 µM,1.32 µM,1.88 µM
Cc1ccc2[nH]c3c(c2c1)CCOC31CCN(Cc2ccccc2-c2ccccc2)CC1 [c22e],3.81 µM,98.6%,89.4%,94.8%,87.6%,94.6%,86.6%,87.8%,85.7%,85.7%,86.9%,70.7%,1.8 µM,,,,,,,
CNC(=S)N1CCN(c2nsc3ccccc23)CC1 [c6e],0.771 µM,103%,100%,99.1%,101%,97.3%,105%,101%,108%,103%,102%,76%,0.413 µM,> 30 µM,> 30 µM,> 30 µM,> 30 µM,> 30 µM,,
O=C(CC1SC(Nc2ccc(O)cc2)=NC1=O)c1ccccc1 (stereo not shown) [c13e],4.56 µM,95%,92.7%,87.7%,95%,87.6%,92%,86.2%,88.7%,85.2%,85.6%,83.8%,1.03 µM,,,,,,,
O=C(Nc1ccc(F)c(F)c1)NC1CCC2CN(CCOc3ccccc3)CC2C1 (stereo not shown) [c9e],2.63 µM,90.2%,92.6%,90.8%,91.5%,89%,92%,91.6%,94.6%,92.9%,95.3%,102%,0.641 µM,> 30 µM,> 30 µM,> 30 µM,> 30 µM,> 30 µM,,
CCOc1ccsc1C(=O)NC1Cc2ccccc2C1 [c16e],3.2 µM,89.7%,86.9%,89.9%,85.4%,87.1%,85.4%,87.5%,84.6%,84.5%,84.3%,87%,1.19 µM,,,,,,,
CCc1nnc(NS(=O)(=O)c2ccc(NC(=O)COc3ccc4ccccc4c3)cc2)s1 [c5v],,,,,,,,,,,,,,> 30 µM,> 30 µM,> 30 µM,> 30 µM,> 30 µM,1.43 µM,2.24 µM
FC(F)(F)c1ccc(N2CCNCC2)nc1OCc1ccc2c(c1)OCCO2 [c46e],11.3 µM,85.8%,88.5%,88.8%,94.6%,90.4%,93.4%,88.9%,91.1%,94%,97.2%,11.7%,6.17 µM,,,,,,,
O=[N+]([O-])c1ccc(-n2cnc3ccccc32)c([N+](=O)[O-])c1 [c41e],11.2 µM,99%,96.9%,102%,101%,104%,97.8%,104%,99.3%,99%,101%,96.3%,5.2 µM,,,,,,,
N#Cc1c(Nc2cccc(C(F)(F)F)c2)sc(C(=O)c2ccc3c(c2)OCO3)c1N [c8e],0.936 µM,88%,94.7%,88.4%,85.7%,86%,87.3%,85.7%,94.3%,81.6%,77.1%,62.5%,0.567 µM,> 30 µM,> 30 µM,> 30 µM,> 30 µM,> 30 µM,,
CCCCc1ccc(NC(=N)Nc2nc(C)cc(C)n2)cc1 [c33e],11.7 µM,90.9%,88%,91.3%,91.5%,93.1%,92.6%,94.3%,88.2%,98.2%,101%,112%,3.25 µM,,,,,,,
Cc1cc(NS(=O)(=O)c2ccc(NC(=O)COc3ccc(Cl)c(C)c3)cc2)no1 [c3v],,,,,,,,,,,,,,> 30 µM,> 30 µM,> 30 µM,> 30 µM,> 30 µM,0.773 µM,0.829 µM
